# Experimental data from ChEMBL document CHEMBL3507680, “University of Dundee, Gates Library screen for HepG2 cell viability”.
# Test: Human HepG2 cell viability assay in 384 well format
# Type: toxicity, cell-based
# Parameters: dose 125 nL, time 70.5 hour; cytotoxicity at 70.5 h: concentration not given beside the values
# Conditions: HepG2 cells, read-out: Inhibition
row,Structure (SMILES),cytotoxicity at 70.5 h [%]
1,Cc1nc(N2CCN(C(=O)c3cccs3)CC2)cc(-n2cccc2)n1,1.27
2,c1csc(-c2cc(CN3CCN(c4nccs4)CC3)no2)c1,-10.2
3,Cc1cc(C(=O)N2CCCC(C)C2)ccc1NCc1nc(C2CC2)no1 (configuration not stated),-13.1
4,Cc1cc(=O)n2ncnc2n1CC(O)c1ccccc1Cl (configuration not stated),-3.15
5,O=C(c1cccnc1O)N1CCCN(c2cccnn2)CC1,-9.98
6,c1cc(CNCc2ccnc(N3CCOCC3)c2)c2c(c1)OCO2,-8.43
7,COCC(=O)N1CC(=O)c2sc(Nc3ccc(F)cc3F)nc2C1,0.281
8,Cc1cc(=O)n2c(n1)SCC2CC(=O)NCc1cc(-c2ccco2)on1 (configuration not stated),-9.17
9,CCN(C(=O)CN1CCCC1c1ccc(F)cc1)c1ccccc1C (configuration not stated),-3.01
10,CN1CCN(C(=O)C[C@@H]2COC[C@H]3CN(c4ccncn4)C[C@@H]23)CC1,12.2
11,CC1CCCCN1C(=O)c1cn(-c2ccc(C(F)(F)F)cn2)nn1 (configuration not stated),-6.25
12,CC(C)CCC(=O)N1CCN(C(C)c2nnc(CC(C)C)o2)CC1 (configuration not stated),23.3
13,CN(C)S(=O)(=O)N1CCC(Oc2ccc(C#N)cn2)CC1,-1.45
14,CC(=O)N1CCO[C@@H]2CN(Cc3ccccc3F)C[C@@H]2C1,-5.88
15,Cc1n[nH]c(=O)c2c(NC(=O)CN3CCOC(C)C3)oc(C)c12 (configuration not stated),12.5
16,c1ccc(-c2nc(CN3CCCC(Cn4cncn4)C3)cs2)cc1 (configuration not stated),-6.56
17,CC(=O)c1cccc(-c2c[nH]c(C)n2)c1,-7.11
18,CCOCC1COCCC12CCN(C(=O)CCOC)CC2 (configuration not stated),-17.1
19,CCc1ccc(C(=O)N2CC[C@](C)(O)[C@H](C)C2)[nH]1,-7.19
20,COc1ccc(-c2cc3cccn(CC(=O)N4CCOCC4)c-3n2)cc1,10.5
21,Cc1ccnc(OCC(=O)N2CCN(c3ncccn3)CC2)n1,-12.6
22,Cc1n[nH]c(C)c1CCCN(C)c1cc(N(C)C)ncn1,6.66
23,CC(C)(CO)CCCNC(=O)NC1(C)Cc2ccccc2C1,-0.326

row,Structure (SMILES),cytotoxicity at 70.5 h [%]
1,CN(Cc1nnn(CC2CC2)n1)C(=O)c1ccccc1,32.1
2,Nc1ccnc(N2C[C@H](O)[C@@H](N3CCN(c4ccccn4)CC3)C2)n1,-17.6
3,CC(C)C[C@@H]1N[C@H](C(=O)NCC2CC2)Cc2c[nH]c3cccc1c23,0.485
4,CO[C@H]1CCN(C(=O)c2cc(C)on2)[C@H]1Cc1ccncc1,-7.23
5,O=C(NC1CC1)[C@@H]1CCO[C@@H]2CCN(Cc3ccsc3)C[C@H]21,-2.46
6,CN(c1cccc2ccccc12)S(=O)(=O)c1cc(C(=O)O)cs1,-0.615
7,CC(C)N(CC(N)=O)C(=O)c1cnc(-c2ccc3c(c2)OCO3)s1,5.92
8,CS(=O)(=O)N1CCCC12CCCN(S(=O)(=O)c1ccc(F)c(F)c1)C2 (configuration not stated),2.95
9,Cc1nn(C)cc1C(=O)N1CCCN(C2Cc3ccccc3C2)CC1,14.3
10,O=C(CCc1cncc(F)c1)NS(=O)(=O)c1ccc(F)cc1F,8.87
11,CCS(=O)(=O)N1CCc2ccc(NC(=O)NCCc3ccccc3)cc21,-6.1
12,CCOc1cc(CN[C@@H]2COC[C@H]2Cc2cc(C)no2)ccc1O,-2.12
13,CC(C)(C)c1noc(CN2CCCN(Cc3cccs3)CC2)n1,-3.44
14,COc1ccc(C(=O)NS(=O)(=O)c2cncc(Br)c2)cc1,-16.9
15,c1nc(NCc2cc3n(n2)CCN(C2CCCCC2)C3)c2nc[nH]c2n1,-11.7
16,C[C@@H]1CN(c2ccc(Cl)cn2)C[C@]1(C)O,3.11
17,Cc1ncsc1CN1CC[C@H]2C[C@H](c3ccncn3)O[C@@H]2C1,-12.4
18,CCc1noc(C)c1C(=O)NCc1ccccn1,-0.245
19,Cc1noc(C)c1CN(C)C(=O)c1ccc(NC2CC2)nc1,0.339
20,CNC(=O)c1ccc2c(c1)C1(CCN(CCOC)CC1)C(=O)N2,0.0675
21,COc1ccc(NC(=O)c2nc3ccccc3n(C)c2=O)c(OC)c1,-0.905
22,O=C(Nc1ccccc1)C1CCCN(c2cc(-n3cncn3)ncn2)C1 (configuration not stated),-1.76
23,Cc1ccccc1CC(C)NCc1c(C)nn(C)c1N1CCOCC1 (configuration not stated),-0.684

row,Structure (SMILES),cytotoxicity at 70.5 h [%]
1,CC1=Nc2c(c(=O)[nH]n2C(C)C)C(c2ccc3c(c2)OCCO3)S1 (configuration not stated),7.71
2,O=C(Cn1ncc2c(c1=O)CCCC2)Nc1cccc2[nH]ccc12,6.81
3,Cn1cc(C2CCCN2Cc2csc(Cc3ccccc3)n2)cn1 (configuration not stated),-8.68
4,Cc1cccc(=O)n1CCC(=O)N1CC[C@@](O)(C2CCC2)[C@H](C)C1,-9.83
5,COc1ccc(CCCN(C)C(=O)c2cc(Cl)c[nH]2)cc1OC,-10.5
6,Cc1nc(S(=O)(=O)N2CCCCc3ccccc32)cn1C,9.73
7,COCc1noc(-c2ccc(N3CCCC3c3ccc(F)cc3)nc2)n1 (configuration not stated),-3.49
8,Cc1csc(CNC(=O)N(C)Cc2ccc([S+](C)[O-])cc2)n1 (configuration not stated),-5.11
9,CCC(CNC(=O)c1cncc(Br)c1)N1CCc2ccccc2C1 (configuration not stated),-5.93
10,OCCN1CCOC2(CCCN(c3cccc(F)c3)C2)C1 (configuration not stated),-7.62
11,CCn1ncc2c1C(COCC1CC1)CN(C(=O)c1cccs1)C2 (configuration not stated),6.27
12,O[C@]12CCNC[C@H]1CN(c1nccc3ccccc13)CC2,22.6
13,CN1CC2(CCN(CCCOCc3ccccc3)CC2)OC1=O,-9.74
14,O=C(CC1CCN(c2ncnc3cccc(F)c23)CC1)N1CCCC1,-24.3
15,O=C(c1cnccn1)N1C[C@@H]2[C@@H](C1)OCC(=O)N2CC1CCCC1,1.12
16,N#Cc1ncn(CC(=O)N2CCCC2c2cccs2)n1 (configuration not stated),22.9
17,CCn1ccnc1CN1CCN(CC(=O)NC2CCOCC2)CC1,25.6
18,CC(C)(C)OC(=O)NCC1CCN(C(=O)c2cc(Cl)c[nH]2)CC1,-14.2
19,COCC1CN(Cc2ccoc2)Cc2nn(CC3CC3)cc21 (configuration not stated),18.3
20,Cc1[nH]c2ccc(C(=O)N3C[C@@H](O)[C@H](N4CCOCC4)C3)cc2c1C,-1.3
21,O=C(C1CCCO1)N1CCC2(CC1)COCCN2CC1CC1 (configuration not stated),2.48
22,Cc1occc1C(=O)N1Cc2nccn2CC(CN2CCOCC2)C1 (configuration not stated),-6.67
23,Cc1csc(CN(C)C(C)C(=O)N2CCc3ccccc3C2)n1 (configuration not stated),11.5

row,Structure (SMILES),cytotoxicity at 70.5 h [%]
1,CN(C)c1ccc(C(=O)N2CCCC(n3cncn3)C2)nn1 (configuration not stated),-5.16
2,CCc1nc(CN2CCCN(C(=O)c3c(C)noc3C)CC2)cs1,-12.9
3,Cc1nc([C@@H]2C[C@@H]3CCN(C(=O)c4ccsc4)C[C@H]3O2)no1,-4.84
4,COc1cccc(CNc2cc(C)nc(-c3ccncc3)n2)c1O,-7.57
5,Cc1cc(CN2CCC(C3CCN(CCc4ccccc4)CC3)C2)[nH]n1 (configuration not stated),-0.097
6,Cn1cc(CN2CCCC23CCN(C(=O)c2cccn2C)CC3)cn1,-14.9
7,O=C(NCCc1noc(-c2ccccn2)n1)NCC1CCCC1,-4.99
8,c1cc(CNCc2ccc(Cn3cncn3)cc2)c2c(c1)OCCO2,-11.4
9,c1ncc2c(n1)CN(c1ncnc3[nH]ccc13)CC2,-4.47
10,CN(Cc1cccc(O)c1)CC1CCCN(CCc2ccc(Cl)cc2)C1 (configuration not stated),10.2
11,O=C(NCCOC1CCCCC1)c1ccc(-c2ccco2)[nH]c1=O,15.1
12,Cc1oncc1C(=O)N1CCC2(CCN(Cc3cccnc3)C2=O)C1 (configuration not stated),-3.48
13,COCc1ccccc1C(=O)OCc1noc(C)n1,-15.9
14,CN1CC[C@H]2OCC[C@@]2(C(=O)NCCc2ccccn2)C1,21.6
15,O=C(O)c1c(-c2ccncc2)ncc2c1CCN(Cc1ccco1)C2,3.95
16,CCNc1ncc(C(=O)N(C)CCc2nc3cc(Cl)ccc3[nH]2)cn1,-16.7
17,CC(C)(C)c1ccc(S(=O)(=O)CCNC(=O)c2cnccn2)cc1,10.2
18,O=C(Cn1cnc2ccsc2c1=O)c1ccc2c(c1)OCCO2,-8.67
19,CN(Cc1cnn(C)c1)C(=O)NCCc1ccc2c(c1)OCCO2,-2.65
20,CCC1(CC)C(=O)NC(=O)N=C1Nc1ccc(C)cc1,-10.3
21,O=C(Cn1cccn1)Nc1ccc(N2CCCCC2)cc1,31.5
22,O=C(N1CCC(Oc2ccncc2)C1)C1(c2ccccc2F)CC1 (configuration not stated),-16.9
23,Cc1nnc(CN(C)C2CCN(Cc3nnc(C4CCC4)o3)C2)n1C (configuration not stated),1.37

row,Structure (SMILES),cytotoxicity at 70.5 h [%]
1,O=C(NCCN1CCCCC1)c1cccc(Cl)c1Cl,-8.61
2,O=C(NCC1CC1)c1cc(Cl)c2c(c1)OCCCO2,8.95
3,CCc1c(C)[nH]c(C2(N)CCCC2)nc1=O,-2.07
4,O=S(=O)(C1CC1)N1CCC2(CN(c3ncccn3)C2)C1,9.33
5,CCCOc1ccc(C2SCC(=O)Nc3c2c(=O)[nH]n3C(C)C)cc1 (configuration not stated),-18.7
6,CC(C)C[C@H](N)C(=O)N1CC2(CCNCC2)c2cc(Cl)ccc21,3.38
7,CC(C)n1cnnc1SCCN(C)c1ccccc1,-6.85
8,Cc1nc(C2CCCN2Cc2nccn2CC(F)(F)F)no1 (configuration not stated),-2.36
9,CCc1nc(CN2CCCC(NCc3cnc(C)s3)C2)no1 (configuration not stated),22.5
10,CC(C)(C)c1cn2nc(N3CCOC(Cn4cncn4)C3)sc2n1 (configuration not stated),-15.9
11,Cc1cc(C)n(CCN2CCN(C(=O)c3ccc(Br)o3)CC2)n1,-4.56
12,CC(C)(O)CN1CCN(C(=O)COC2CCCC2)CC1,-2.37
13,O=C(NCc1cccnc1)NCC(O)c1ccccc1C(F)(F)F (configuration not stated),-9.13
14,O=C(NC1CC1)c1cc(NC(=O)N2CCOCC2)ccc1Cl,-15.3
15,COc1cccc(C(CO)NC(=O)NC(C)C)c1 (configuration not stated),11.8
16,Cc1cc(NC(=O)c2ccc(F)cc2F)n(C)n1,-10.6
17,Cc1cnc(NC(C)Cc2cccnc2)nc1N(C)C (configuration not stated),0.166
18,c1cnc(N2CCCC3(CCN(CC4CC4)C3)C2)nc1 (configuration not stated),-6.19
19,COCc1cncc2c1CCN(Cc1ccccn1)C2,-0.455
20,NC(=O)CN1CCC(NC(=O)c2ccn(-c3cccc(F)c3)n2)CC1,-3.27
